Assay results taken from patent US11458187B2, “Extracellular histones as biomarkers for prognosis and molecular targets for therapy” (OKLAHOMA MEDICAL RESEARCH FOUNDATION, priority 2007, dated 2022).

Key:
calf thymus histone H4 = molecular target: T1, calf thymus histone H4 (Bos taurus, UniProt P62803); experiment: Cleavage of purified histone H4 by APC (SDS-PAGE); assay type: biochemical; conditions: 37° C.
T1 construct: Purified calf thymus histone H3 (top panel) or histone H4 (bottom panel); purchased Roche; host or cells: calf thymus tissue
Protocol: 0.1 mg/ml histone H4 was incubated with 20 μg/ml human APC in PBS containing 1 mM CaCl2 and MgCl2 at 37° C. for 60 min. Sample was subjected to SDS-PAGE and GelCode Blue (PIERCE) staining or sent to matrix-assisted laser desorption ionization-time of flight facility at the University of Oklahoma Health Science Center for molecular weight determination.

calf thymus histone H3 = experiment: Cleavage of purified histone H3 by APC (SDS-PAGE); assay type: biochemical; conditions: 100 μg/ml histone H3, indicated concentrations of human APC, 1 hr, 37° C.; FIG. 13C
Protocol: (FIG. 13C) Purified calf thymus histone H3 (top panel) or histone H4 (bottom panel) (100 μg/ml) was incubated in Opti-MEM medium with the indicated concentrations of human APC for 1 hr at 37° C. Samples were then subjected to SDS-PAGE and coomassie blue staining.

IL-6 = IL-6 production from endothelium (ELISA); assay type: cell-based, human; conditions: FIG. 8
Protocol: (§1) FIG. 8—Histones induce IL-6 production from endothelium. EA.hy926 cells were stimulated with histone (0.1 mg/ml) or histone H3, histone H4 (50 μg/ml) for 24 hr at 37° C. in the absence or presence of APC (6 μg/ml), Anti-TLR2, Anti-TLR4 (10 μg/ml). Conditioned medium was measured for IL-6 production by IL-6 ELISA kit.

IL-8 = IL-8 production from endothelium (ELISA); assay type: cell-based, human; conditions: FIG. 9
Protocol: as §1, with “FIG. 9—Histones” for “FIG. 8—Histones”, “induce IL-8” for “induce IL-6”, “for IL-8” for “for IL-6”

[1] = tested on: baboons challenged with a lethal dose of E. coli; experiment: Baboon model of sepsis, lethal dose of E. coli with or without infused APC; assay type: in vivo
Protocol: Six to 8 week male C57BL/6 mice (Jackson Lab) were used according to an animal protocol approved by Institutional Animal Care and Use Committees of the Oklahoma Medical Research Foundation. Baboon experiments were performed as previously described^5.
To test whether extracellular histones may be involved in the pathogenesis of diseases and if APC can cleave these histones in vivo, the inventors examined frozen archival plasma samples from a non-human primate model of sepsis in which baboons were challenged with a lethal dose of E. coli (Taylor et al., 1987). […] The inventors measured extracellular histones in the plasma from animals challenged with the lethal dose of E. coli either in the absence or presence of infused APC. Intact histone H3 was detected by Western blot in the plasma of the two baboons challenged with the lethal dose of E. coli and reached about 15 μg/ml 8 hours post-challenge (FIG. 14E). The inventors were unable to measure other histones in the same way because those anti-histone antibodies were not adequately sensitive. The increase in histone H3 accompanied the onset of acute renal failure as indicated by a high serum creatinine level, 2.65+/−0.05 mg/dL (normal range: 0.7-1.4 mg/dL) 8 hours post-challenge. […] APC co-infusion protected renal function as indicated by the normal serum creatinine level, 1.15+/−0.15 mg/dL at 8 hours post-challenge. […]

mice = experiment: Intravenous histone injection lethality in mice; assay type: in vivo, mouse; conditions: co-injection of 5 mg APC/kg with 75 mg/kg histones, n=5
Protocol: To test the toxic effect of histones in vivo, the inventors injected 75 mg/kg of histones intravenously into mice. […] The calculated histone H3 concentration in the circulation of mice injected with the lethal dose of histones is about 5 times higher than the histone H3 level detected in the baboon plasma 8 hr post challenge with E. coli. […] The ratio of APC to histone H3 used to rescue the mice in vivo is similar to the ratio of APC to histone H3 used in endothelial cytoprotection experiment in vitro.

[2] = tested on: baboons challenged with a lethal dose of E. coli; conditions: infusion of APC (Taylor et al., 1987); cited from earlier work
[3] = severe sepsis; decreased from about 31%; cited from earlier work
[4] = APC 6 μg/ml, Anti-TLR2, Anti-TLR4 10 μg/ml, 24 hr
[5] = stimulation of EA.hy926 24 hr, serum-free, histones 0.1 mg/ml, histone H3 or H4 50 μg/ml

## APC: Human recombinant APC (Xigris) purchased from Eli Lilly; drotrecogin alfa (activated protein C)
Calf thymus histone H4; 100 μg/ml histone H4, indicated concentrations of human APC, 1 hr, FIG. 13C
  cleavage of purified histone H4: cleaved histone H3 and H4 in a dose dependent fashion
Calf thymus histone H4; 0.1 mg/ml histone H4, 20 μg/ml human APC, 60 min, 4-7 KD fragments, FIG. 4B
  cleavage of purified histone H4: also cleaved by APC
Calf thymus histone H3
  cleavage of purified histone H3: cleaved histone H3 and H4 in a dose dependent fashion
IL-6; [4]
  inhibition of histone-induced IL-6 production: completely inhibits histone effect on IL-6 and IL-8 production
IL-8; [4]
  inhibition of histone-induced IL-8 production: completely inhibits histone effect on IL-6 and IL-8 production
[1]; 8 hours post-challenge, APC co-infusion, normal range 0.7-1.4 mg/dL, 2.65+/−0.05 without APC
  serum creatinine level: 1.15 ± 0.15 mg/dL
[1]; two animals challenged with a lethal dose of E. coli and administered APC, FIG. 14E
  cleavage of extracellular histone H3 in plasma (Western blot): can cleave extracellular histones in vivo
mice
  rescue from lethal dose of histones: rescued all of the mice
[2]
  survival of baboons: rescued these animals
[3]
  mortality: about 25%

## Pam3CSK4
IL-6; [5]
  IL-6 production: have no effect
IL-8; [5]
  IL-8 production: have no effect
